Data reported in patent US6689773B2, “Uracil substituted phenyl sulfamoyl carboxamides” (BASF Aktiengesellschaft, priority 2000, dated 2004).

What was measured:
Format in all cases: in vivo
[1] = system: ABUTH, Velvetleaf, Abutilon theophrasti, Medic.; experiment: Postemergence herbicidal evaluation (Example 147); conditions: rating scale 0-9, two to three weeks after treatment
Summary of the method: (§1)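 ~2-wk seedlings; spray 40 psi; 0.016–0.032 kg/ha a.i. in acetone/water 80/20 + 1.0% methylated seed oil; greenhouse; rated 0–9 visually at 2–3 wk; multiple tests averaged.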

[2] = system: ALOMY, Blackgrass, Alopecurus myosuroides; experiment: Postemergence herbicidal evaluation (Example 147); conditions: rating scale 0-9, two to three weeks after treatment
Summary of the method: as §1

[3] = system: AMBEL, Ragweed, Common, Ambrosia artemiisifolia, L.; experiment: Postemergence herbicidal evaluation (Example 147); conditions: rating scale 0-9, two to three weeks after treatment
Summary of the method: as §1

[4] = system: CHEAL, Lambsquarters, Chenopodium album, L. Common; experiment: Postemergence herbicidal evaluation (Example 147); conditions: rating scale 0-9, two to three weeks after treatment
Summary of the method: as §1

[5] = system: DIGSA, Crabgrass, (Hairy) L, Digitaria sanguinalis, (L)Scop; experiment: Postemergence herbicidal evaluation (Example 147); conditions: rating scale 0-9, two to three weeks after treatment
Summary of the method: as §1

[6] = system: ECHCG, Barnyardgrass, Echinochloa crusgalli, (L.)Beau; experiment: Postemergence herbicidal evaluation (Example 147); conditions: rating scale 0-9, two to three weeks after treatment
Summary of the method: as §1

[7] = system: GLXMA, Soybean, Glycine max, (L.) Merr.; experiment: Postemergence herbicidal evaluation (Example 147); conditions: rating scale 0-9, two to three weeks after treatment
Summary of the method: as §1

[8] = system: IPOHE, Morningglory, Ivyleaf, Ipomoea hederacea, (L)Jacq.; experiment: Postemergence herbicidal evaluation (Example 147); conditions: rating scale 0-9, two to three weeks after treatment
Summary of the method: as §1

[9] = system: SETVI, Green foxtail, Setaria viridis, (L.)Beau; experiment: Postemergence herbicidal evaluation (Example 147); conditions: rating scale 0-9, two to three weeks after treatment
Summary of the method: as §1

[10] = system: TRZAW, Winter wheat, Tritium Aestivum, L. (Winter); experiment: Postemergence herbicidal evaluation (Example 147); conditions: rating scale 0-9, two to three weeks after treatment
Summary of the method: as §1

[11] = system: XANST, Cocklebur, Xanthium strumariam; experiment: Postemergence herbicidal evaluation (Example 147); conditions: rating scale 0-9, two to three weeks after treatment
Summary of the method: as §1

[12] = system: ZEAMX, Field corn, Zea mays L.; experiment: Postemergence herbicidal evaluation (Example 147); conditions: rating scale 0-9, two to three weeks after treatment
Summary of the method: as §1

[13] = system: ABUTH, Velvetleaf, Abutilon theophrasti, Medic.; experiment: Preemergence herbicidal evaluation (Example 148); conditions: rating scale 0-9, two to four weeks after treatment
Summary of the method: (§2)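 Visual scoring against control (stand, vigor, malformation, size, chlorosis, overall appearance) took place two to four weeks post-spray in the greenhouse. Compound in aqueous acetone was applied to freshly seeded soil cups at roughly 0.125–0.250 kg/ha. Values from multiple tests were averaged.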

[14] = system: ALOMY, Blackgrass, Alopecurus myosuroides; experiment: Preemergence herbicidal evaluation (Example 148); conditions: rating scale 0-9, two to four weeks after treatment
Summary of the method: as §2

[15] = system: AMBEL, Ragweed, Common, Ambrosia artemiisifolia, L.; experiment: Preemergence herbicidal evaluation (Example 148); conditions: rating scale 0-9, two to four weeks after treatment
Summary of the method: as §2

[16] = system: CHEAL, Lambsquarters, Chenopodium album, L. Common; experiment: Preemergence herbicidal evaluation (Example 148); conditions: rating scale 0-9, two to four weeks after treatment
Summary of the method: as §2

[17] = system: DIGSA, Crabgrass, (Hairy) L, Digitaria sanguinalis, (L)Scop; experiment: Preemergence herbicidal evaluation (Example 148); conditions: rating scale 0-9, two to four weeks after treatment
Summary of the method: as §2

[18] = system: ECHCG, Barnyardgrass, Echinochloa crusgalli, (L.)Beau; experiment: Preemergence herbicidal evaluation (Example 148); conditions: rating scale 0-9, two to four weeks after treatment
Summary of the method: as §2

[19] = system: GLXMA, Soybean, Glycine max, (L.) Merr.; experiment: Preemergence herbicidal evaluation (Example 148); conditions: rating scale 0-9, two to four weeks after treatment
Summary of the method: as §2

[20] = system: IPOHE, Morningglory, Ivyleaf, Ipomoea hederacea, (L)Jacq.; experiment: Preemergence herbicidal evaluation (Example 148); conditions: rating scale 0-9, two to four weeks after treatment
Summary of the method: as §2

[21] = system: SETVI, Green foxtail, Setaria viridis, (L.)Beau; experiment: Preemergence herbicidal evaluation (Example 148); conditions: rating scale 0-9, two to four weeks after treatment
Summary of the method: as §2

[22] = system: TRZAW, Winter wheat, Tritium Aestivum, L. (Winter); experiment: Preemergence herbicidal evaluation (Example 148); conditions: rating scale 0-9, two to four weeks after treatment
Summary of the method: as §2

[23] = system: XANST, Cocklebur, Xanthium strumariam; experiment: Preemergence herbicidal evaluation (Example 148); conditions: rating scale 0-9, two to four weeks after treatment
Summary of the method: as §2

[24] = system: ZEAMX, Field corn, Zea mays L.; experiment: Preemergence herbicidal evaluation (Example 148); conditions: rating scale 0-9, two to four weeks after treatment
Summary of the method: as §2

With `COc1ccc(CNS(=O)(=O)NC(=O)c2cc(-n3c(=O)cc(C(F)(F)F)n(C)c3=O)c(F)cc2Cl)cc1` [Example 82] the “Postemergence herbicidal rating ABUTH” value ([1]; rate 0.016 kg/ha) was 9.0, the “Postemergence herbicidal rating ABUTH” value ([1]; rate 0.032 kg/ha) was 9.0 and the “Postemergence herbicidal rating ALMOY” value ([2]; rate 0.016 kg/ha) was 1.0. For the same molecule, the “Postemergence herbicidal rating ALMOY” value ([2]; rate 0.032 kg/ha) was 2.0, the “Postemergence herbicidal rating AMBEL” value ([3]; rate 0.016 kg/ha) was 9.0 and the “Postemergence herbicidal rating AMBEL” value ([3]; rate 0.032 kg/ha) was 9.0. For the same molecule, the “Postemergence herbicidal rating CHEAL” value ([4]; rate 0.016 kg/ha) was 9.0, the “Postemergence herbicidal rating CHEAL” value ([4]; rate 0.032 kg/ha) was 9.0 and the “Postemergence herbicidal rating DIGSA” value ([5]; rate 0.016 kg/ha) was 3.0. The “Postemergence herbicidal rating DIGSA” value ([5]; rate 0.032 kg/ha) was 3.0, the “Postemergence herbicidal rating ECHCG” value ([6]; rate 0.016 kg/ha) was 7.0 and the “Postemergence herbicidal rating ECHCG” value ([6]; rate 0.032 kg/ha) was 8.0. For the same molecule, the “Postemergence herbicidal rating GLXMA” value ([7]; rate 0.016 kg/ha) was 8.0, the “Postemergence herbicidal rating GLXMA” value ([7]; rate 0.032 kg/ha) was 8.5 and the “Postemergence herbicidal rating IPOHE” value ([8]; rate 0.016 kg/ha) was 9.0. For the same molecule, the “Postemergence herbicidal rating IPOHE” value ([8]; rate 0.032 kg/ha) was 9.0, the “Postemergence herbicidal rating SETVI” value ([9]; rate 0.016 kg/ha) was 6.0 and the “Postemergence herbicidal rating SETVI” value ([9]; rate 0.032 kg/ha) was 7.0. The “Postemergence herbicidal rating TRZAW” value ([10]; rate 0.016 kg/ha) was 5.5, the “Postemergence herbicidal rating TRZAW” value ([10]; rate 0.032 kg/ha) was 6.0 and the “Postemergence herbicidal rating XANST” value ([11]; rate 0.016 kg/ha) was 9.0. For the same molecule, the “Postemergence herbicidal rating XANST” value ([11]; rate 0.032 kg/ha) was 9.0, the “Postemergence herbicidal rating ZEAMX” value ([12]; rate 0.016 kg/ha) was 6.5 and the “Postemergence herbicidal rating ZEAMX” value ([12]; rate 0.032 kg/ha) was 6.5. For the same molecule, the “Preemergence herbicidal rating ABUTH” value ([13]; rate 0.125 kg/ha) was 9.0, the “Preemergence herbicidal rating ABUTH” value ([13]; rate 0.25 kg/ha) was 9.0 and the “Preemergence herbicidal rating ALMOY” value ([14]; rate 0.125 kg/ha) was 0.0. For the same molecule, the “Preemergence herbicidal rating ALMOY” value ([14]; rate 0.25 kg/ha) was 0.0, the “Preemergence herbicidal rating AMBEL” value ([15]; rate 0.125 kg/ha) was 9.0 and the “Preemergence herbicidal rating AMBEL” value ([15]; rate 0.25 kg/ha) was 9.0. For the same molecule, the “Preemergence herbicidal rating CHEAL” value ([16]; rate 0.125 kg/ha) was 9.0, the “Preemergence herbicidal rating CHEAL” value ([16]; rate 0.25 kg/ha) was 9.0 and the “Preemergence herbicidal rating DIGSA” value ([17]; rate 0.125 kg/ha) was 4.0. The “Preemergence herbicidal rating DIGSA” value ([17]; rate 0.25 kg/ha) was 4.0, the “Preemergence herbicidal rating ECHCG” value ([18]; rate 0.125 kg/ha) was 3.0 and the “Preemergence herbicidal rating ECHCG” value ([18]; rate 0.25 kg/ha) was 4.0. The “Preemergence herbicidal rating GLXMA” value ([19]; rate 0.125 kg/ha) was 9.0, the “Preemergence herbicidal rating GLXMA” value ([19]; rate 0.25 kg/ha) was 9.0 and the “Preemergence herbicidal rating IPOHE” value ([20]; rate 0.125 kg/ha) was 9.0. The “Preemergence herbicidal rating IPOHE” value ([20]; rate 0.25 kg/ha) was 9.0, the “Preemergence herbicidal rating SETVI” value ([21]; rate 0.125 kg/ha) was 3.0 and the “Preemergence herbicidal rating SETVI” value ([21]; rate 0.25 kg/ha) was 7.0. For the same molecule, the “Preemergence herbicidal rating TRZAW” value ([22]; rate 0.125 kg/ha) was 0.0, the “Preemergence herbicidal rating TRZAW” value ([22]; rate 0.25 kg/ha) was 1.0 and the “Preemergence herbicidal rating XANST” value ([23]; rate 0.125 kg/ha) was 9.0. For the same molecule, the “Preemergence herbicidal rating XANST” value ([23]; rate 0.25 kg/ha) was 9.0, the “Preemergence herbicidal rating ZEAMX” value ([24]; rate 0.125 kg/ha) was 0.0 and the “Preemergence herbicidal rating ZEAMX” value ([24]; rate 0.25 kg/ha) was 2.0.
`CNS(=O)(=O)NC(=O)c1cc(-n2c(=O)cc(C(F)(F)F)n(C)c2=O)c(F)cc1Cl` [Example 56] was tested, and the “Postemergence herbicidal rating ABUTH” value ([1]; rate 0.016 kg/ha) was 9.0, the “Postemergence herbicidal rating ABUTH” value ([1]; rate 0.032 kg/ha) was 9.0 and the “Postemergence herbicidal rating ALMOY” value ([2]; rate 0.016 kg/ha) was 2.0. The “Postemergence herbicidal rating ALMOY” value ([2]; rate 0.032 kg/ha) was 2.0, the “Postemergence herbicidal rating AMBEL” value ([3]; rate 0.016 kg/ha) was 8.0 and the “Postemergence herbicidal rating AMBEL” value ([3]; rate 0.032 kg/ha) was 9.0. The “Postemergence herbicidal rating CHEAL” value ([4]; rate 0.016 kg/ha) was 7.0, the “Postemergence herbicidal rating CHEAL” value ([4]; rate 0.032 kg/ha) was 7.0 and the “Postemergence herbicidal rating DIGSA” value ([5]; rate 0.016 kg/ha) was 3.0. For the same molecule, the “Postemergence herbicidal rating DIGSA” value ([5]; rate 0.032 kg/ha) was 5.0, the “Postemergence herbicidal rating ECHCG” value ([6]; rate 0.016 kg/ha) was 7.0 and the “Postemergence herbicidal rating ECHCG” value ([6]; rate 0.032 kg/ha) was 7.0. For the same molecule, the “Postemergence herbicidal rating GLXMA” value ([7]; rate 0.016 kg/ha) was 8.5, the “Postemergence herbicidal rating GLXMA” value ([7]; rate 0.032 kg/ha) was 8.5 and the “Postemergence herbicidal rating IPOHE” value ([8]; rate 0.016 kg/ha) was 9.0. For the same molecule, the “Postemergence herbicidal rating IPOHE” value ([8]; rate 0.032 kg/ha) was 9.0, the “Postemergence herbicidal rating SETVI” value ([9]; rate 0.016 kg/ha) was 6.0 and the “Postemergence herbicidal rating SETVI” value ([9]; rate 0.032 kg/ha) was 7.0. The “Postemergence herbicidal rating TRZAW” value ([10]; rate 0.016 kg/ha) was 4.0, the “Postemergence herbicidal rating TRZAW” value ([10]; rate 0.032 kg/ha) was 5.0 and the “Postemergence herbicidal rating XANST” value ([11]; rate 0.016 kg/ha) was 9.0. The “Postemergence herbicidal rating XANST” value ([11]; rate 0.032 kg/ha) was 9.0, the “Postemergence herbicidal rating ZEAMX” value ([12]; rate 0.016 kg/ha) was 7.5 and the “Postemergence herbicidal rating ZEAMX” value ([12]; rate 0.032 kg/ha) was 8.0. The “Preemergence herbicidal rating ABUTH” value ([13]; rate 0.125 kg/ha) was 9.0, the “Preemergence herbicidal rating ABUTH” value ([13]; rate 0.25 kg/ha) was 9.0 and the “Preemergence herbicidal rating ALMOY” value ([14]; rate 0.125 kg/ha) was 0.0. The “Preemergence herbicidal rating ALMOY” value ([14]; rate 0.25 kg/ha) was 0.0, the “Preemergence herbicidal rating AMBEL” value ([15]; rate 0.125 kg/ha) was 9.0 and the “Preemergence herbicidal rating AMBEL” value ([15]; rate 0.25 kg/ha) was 9.0. For the same molecule, the “Preemergence herbicidal rating CHEAL” value ([16]; rate 0.125 kg/ha) was 9.0, the “Preemergence herbicidal rating CHEAL” value ([16]; rate 0.25 kg/ha) was 9.0 and the “Preemergence herbicidal rating DIGSA” value ([17]; rate 0.125 kg/ha) was 7.0. The “Preemergence herbicidal rating DIGSA” value ([17]; rate 0.25 kg/ha) was 7.0, the “Preemergence herbicidal rating ECHCG” value ([18]; rate 0.125 kg/ha) was 3.0 and the “Preemergence herbicidal rating ECHCG” value ([18]; rate 0.25 kg/ha) was 7.0. For the same molecule, the “Preemergence herbicidal rating GLXMA” value ([19]; rate 0.125 kg/ha) was 2.0, the “Preemergence herbicidal rating GLXMA” value ([19]; rate 0.25 kg/ha) was 9.0 and the “Preemergence herbicidal rating IPOHE” value ([20]; rate 0.125 kg/ha) was 8.0. For the same molecule, the “Preemergence herbicidal rating IPOHE” value ([20]; rate 0.25 kg/ha) was 9.0, the “Preemergence herbicidal rating SETVI” value ([21]; rate 0.125 kg/ha) was 4.0 and the “Preemergence herbicidal rating SETVI” value ([21]; rate 0.25 kg/ha) was 8.0. For the same molecule, the “Preemergence herbicidal rating TRZAW” value ([22]; rate 0.125 kg/ha) was 0.0, the “Preemergence herbicidal rating TRZAW” value ([22]; rate 0.25 kg/ha) was 0.0 and the “Preemergence herbicidal rating XANST” value ([23]; rate 0.125 kg/ha) was 8.0. For the same molecule, the “Preemergence herbicidal rating XANST” value ([23]; rate 0.25 kg/ha) was 9.0, the “Preemergence herbicidal rating ZEAMX” value ([24]; rate 0.125 kg/ha) was 0.0 and the “Preemergence herbicidal rating ZEAMX” value ([24]; rate 0.25 kg/ha) was 2.0.
